Where two headings read alike, the source gives them in different places.
Experiments:
[1] = system: PHN induced by HSV-1 KOS strain virus in BALB/c mice; assay: PWT (von Frey), HSV-1 mouse model of PHN, topical (Example 20); assay type: in vivo; conditions: Post-inoculation and treatment, sulindac 5% gel on both hind paws three times a day for three days
Description: PHN was induced in mice by infecting them with the HSV-1 KOS strain virus and following established protocols (Ou et al, Front Immunol, 14, 1026269, 2023; Takasaki et al, Anesthesiology, 96(5), 1168-74, 2002).
; Reckitt Benckiser). Three days later, HSV-1 (10^6 PFUs in 20 μl PBS) was inoculated on the shin of the right hind paw (5×5 mm) after scarification with sandpaper. The virus was applied directly to the scarified area. The contralateral hind paw was without inoculation. Mock infection was performed using the same virus inactivated by heating at 60° C. for 1 h.
. Group 1: sham inoculated (n=5-7) • 2.
In a second experiment, the effect of the parent compound, sulindac, was tested in the same mouse model. Five days post-inoculation, sulindac (as a 5% gel), or vehicle control were administered topically onto both hind paws of mice three times a day for three days.
. Group 1: vehicle control (n=5-7) • 2. Group 2: sulindac 5% (n=5-7)

[2] = system: NTG-induced migraine in C57BL/6J mice; assay: PWT (von Frey), NTG-induced migraine mouse model, topical (Example 13)
Description: Specifically, instead of the intraperitoneal injection of NTG, a finely crushed 0.4 mg NTG tablet (Greenstone Brand) was administered sublingually. As a control, a Practi-Nitroglycerin Sublingual 0.4 mg Simulated Medication tablet was used.
For determining mechanical allodynia, pain threshold responses were measured using the well-established method of von Frey filaments in line with that performed in the earlier Examples.
The PWT test, assessing mechanical allodynia, was performed 30 minutes after treatment. The mechanical threshold, expressed as g, indicates the force of the von Frey filament to which the animal reacted.

[3] = Pharmacokinetics and biodistribution after topical PS 8% ointment to hind paws (Example 25); assay type: in vivo, mouse; conditions: all tissues except the sciatic nerve (higher) and DRG (equal)
Description: At 0.5, 1, 3, 5, 12, 18, and 24 h, mice (n=4-5 mice/time point) were euthanized with CO2 inhalation. Blood was drawn immediately after death. Tissues, including paw skin, paw muscle, leg muscle, the sciatic nerve and lumbar DRG bilaterally were dissected quickly, immediately frozen in liquid nitrogen and stored at −80° C. until analyzed.

[4] = system: NTG-induced chronic migraine in mice; assay: PWT (von Frey), NTG-induced chronic migraine model, oral (Example 16)
Description: In particular, mice receive sublingual NTG 0.4 mg in the form of a finely crushed 0.4 mg NTG tablet (Greenstone Brand) every two days, receiving a total of five doses. For control mice, an NTG placebo (Practi-Nitroglycerin Sublingual 0.4 mg Simulated Medication tablet) was administered in the same way.
Group 1: placebo NTG (i.e, no NTG treatment, n=8) • 2. Group 2: NTG (n=8) • 3. Group 3: NTG+vehicle (n=8) • 4. […] Group 5: NTG+sulindac (n=8)
Mechanical allodynia was determined using von Frey filaments in line with that performed in the earlier Examples. The PWT test was performed prior to NTG (or placebo NTG) administration to determine baseline values, as indicated. […] The mechanical threshold, expressed as g, indicates the force of the von Frey filament to which the animal reacted.

[5] = Pharmacokinetics and biodistribution after 3% PS gel on outer surface of eyelid (Example 26); assay type: in vivo, rabbit; conditions: rabbits, 3% PS gel on outer surface of upper eyelids; for AUC(0-t): read-out: AUC0-24 h; for concentration at 0.5 h / concentration at 1 h / concentration at 2 h / concentration at 4 h / concentration at 8 h / concentration at 24 h: topical, read-out: Amount in tissue, Mean ± SEM
Description: The pharmacokinetics and biodistribution of 3% PS gel applied to the outer surface of both upper eyelids was studies in male New Zealand White rabbits.
Eyelid and tissues of the globe were dissected and frozen quickly in liquid nitrogen until the levels of PS and its metabolites were determined by HPLC as described Xie et al. (Br J Pharmacol (2012);165:2152-66).

[6] = PS and metabolites in proximal and distal half of the sciatic nerve (Example 25); assay type: in vivo, mouse; conditions: sciatic nerve halves, 30 min after last dose
Description: In a separate experiment we studied 8 mice with paclitaxel-induced PN treated with PS 8% ointment 3×/d for 2 wks. Mice were euthanized as above 30 minutes after the last dose of PS. From these mice we harvested both sciatic nerves dividing each into proximal and distal halves, and combined the corresponding halves of every two animals for assay of drug levels.

[7] = system: paclitaxel-induced central sensitization in C57/BL/6J mice; conditions: day 14; PS hydrogel 5% or 0.7% sulindac 3 times a day; 5% lidocaine cream once 30 min before; pregabalin 10 mg/kg orally once 1 h before
Description: Regarding the treatment with lidocaine: 5% lidocaine cream (a positive control) was applied once to both hind paws of the mice 30 minutes before measurement of PWT.
Briefly, for mechanical allodynia, pain threshold responses were measured using the well-established method of von Frey filaments in line with that performed in the earlier Examples. The PWT test was performed on day-8 (before the first dose of paclitaxel), the day of starting treatment (day 0, at which central sensitization was fully established) and day 14 (treatment continued until day 15). The mechanical threshold, expressed as g, indicates the force of the von Frey filament to which the animal reacted.

[8] = system: STZ-induced central sensitization in Sprague-Dawley rats; assay: PWT (von Frey), streptozotocin rat model of central sensitization (Example 4); assay type: in vivo; conditions: 0.7% sulindac hydrogel 3 times a day for 1 week; 5% lidocaine cream once 30 min before; pregabalin 10 mg/kg orally once 1 h before
Description: Sprague-Dawley rats were fasted for 4-6 hours before being injected intraperitoneally with 45 mg/kg STZ. This was performed for all experimental groups, except the naive group. In order to prevent hypoglycaemic death, rats received 10% sucrose water as the sole water source for the first 48 hours after injection. In order to ensure only those rats considered diabetic (i.e., having non-fasting plasma glucose levels of >250 mg/dL) were included in the study, blood glucose was measured at 72 hours after the STZ injection.
Four weeks after STZ injection, the rats were randomised into treatment groups. This delay between STZ injection and treatment allows the establishment of chronic pain (allodynia) associated with central sensitization. […] 5% lidocaine cream (positive control) was applied only once to both hind paws of the rats 30 minutes before measurement of PWT.
The rats were split into 8 study groups, with those in the experimental groups (1-4) having an average body weight of about 225 g, and those in the control groups (5-8) having an average body weight of about 335 g, as follows: • 1. Group 1: naive rats (n=5) • 2. Group 2: STZ only (n=6) • 3. Group 3: STZ plus vehicle (n=6) • 4. […] Group 5: STZ plus oral vehicle (n=8) • 6. Group 6: STZ plus 0.7% sulindac hydrogel (n=7) • 7. Group 7: STZ plus 5% lidocaine cream (n=8) • 8.

[9] = male, New Zealand White, rabbit, topical or ocular, conjunctiva
[10] = male, New Zealand White, rabbit, topical or ocular, cornea
[11] = male, New Zealand White, rabbit, topical or ocular, eyelid
[12] = male, New Zealand White, rabbit, AH (aqueous humor)
[13] = male, New Zealand White, rabbit, conjunctiva
[14] = male, New Zealand White, rabbit, cornea
[15] = male, New Zealand White, rabbit, eyelid
[16] = male, New Zealand White, rabbit, vitreous

With `CC1=C(CC(=O)O)c2cc(F)ccc2/C1=C\c1ccc([S+](C)[O-])cc1` (centres unmarked) [sulindac] as the compound, how does the “PWT, g Mean ± SEM” value [1] read?
Its value is 0.56 ± 0.06 g.

And the “PWT, g Mean ± SEM” value ([1]; listed as Sulindac)?
The value was 0.56 ± 0.06 g.

And the “PWT Post-treatment Mean ± SEM” value ([2]; 30 min after treatment, PS 8% gel or sulindac 5.3% (in DMSO) on both hind paws 30 min after NTG)?
Its value is 0.55 ± 0.02 g.

And the “PWT Baseline Mean ± SEM” value ([2]; baseline of the group, before NTG and treatment)?
The value was 1.43 ± 0.15 g.

And the “sulindac levels relative to those of PS” value [3]?
Its value is “around 25%”.

What about the “PWT, g Mean ± SEM” value ([4]; Baseline, prior to NTG administration) of the same compound?
The value was 1.80 ± 0.12 g.

And the “PWT, g Mean ± SEM” value ([4]; Day 11, orally once a day for 11 days concurrent with NTG, PS 50 mg/kg, sulindac 33 mg/kg)?
The value was 0.43 ± 0.03 g.

And the Tmax ([5]; eyelid)?
The Tmax was 1 h.

And the Cmax [5, 9]?
The Cmax was 800 nM.

What about the AUC(0-t) [5, 9] of the same compound?
The AUC(0-t) was 2.5 ± 0.3 µM·h.

What about the Tmax ([5]; male, New Zealand White, rabbit, topical or ocular, conjunctiva, read-out: TMax) of the same compound?
Its Tmax is 8 h.

And the Cmax [5, 10]?
The Cmax was 600 nM.

What about the half-life [5, 10] of the same compound?
The half-life was 7.4 h.

And the AUC(0-t) [5, 10]?
Its AUC(0-t) is 2.4 ± 0.5 µM·h.

And the Cmax [5, 11]?
Its Cmax is 3600 nM.

What about the half-life [5, 11] of the same compound?
Its half-life is 1.1 h.

What about the AUC(0-t) [5, 11] of the same compound?
The AUC(0-t) was 5.5 ± 0.8 µM·h.

And the concentration at 0.5 h [5, 12]?
Its concentration at 0.5 h is 0 nM.

What about the concentration at 1 h [5, 12] of the same compound?
The concentration at 1 h was 0 nM.

And the concentration at 2 h [5, 12]?
Its concentration at 2 h is 0 nM.

And the concentration at 4 h [5, 12]?
Its concentration at 4 h is 0 nM.

What about the concentration at 8 h [5, 12] of the same compound?
The concentration at 8 h was 0 nM.

What about the concentration at 24 h [5, 12] of the same compound?
The concentration at 24 h was 0 nM.

And the concentration at 0.5 h [5, 13]?
The concentration at 0.5 h was 100 ± 100 nM.

And the concentration at 1 h [5, 13]?
The concentration at 1 h was 200 ± 100 nM.

What about the concentration at 2 h [5, 13] of the same compound?
The concentration at 2 h was 0 nM.

What about the concentration at 4 h [5, 13] of the same compound?
The concentration at 4 h was 100 ± 100 nM.

And the concentration at 8 h [5, 13]?
The concentration at 8 h was 800 ± 500 nM.

And the concentration at 24 h [5, 13]?
Its concentration at 24 h is 0 nM.

What about the concentration at 0.5 h [5, 14] of the same compound?
Its concentration at 0.5 h is 400 ± 200 nM.

What about the concentration at 1 h [5, 14] of the same compound?
Its concentration at 1 h is 600 ± 100 nM.

And the concentration at 2 h [5, 14]?
The concentration at 2 h was 0 nM.

What about the concentration at 4 h [5, 14] of the same compound?
Its concentration at 4 h is 300 ± 100 nM.

And the concentration at 8 h [5, 14]?
Its concentration at 8 h is 200 ± 200 nM.

What about the concentration at 24 h [5, 14] of the same compound?
Its concentration at 24 h is 0 nM.

What about the concentration at 0.5 h [5, 15] of the same compound?
The concentration at 0.5 h was 1000 ± 100 nM.

What about the concentration at 1 h [5, 15] of the same compound?
Its concentration at 1 h is 3600 ± 1200 nM.

And the concentration at 2 h [5, 15]?
The concentration at 2 h was 0 nM.

What about the concentration at 4 h [5, 15] of the same compound?
Its concentration at 4 h is 500 ± 200 nM.

What about the concentration at 8 h [5, 15] of the same compound?
Its concentration at 8 h is 0 nM.

And the concentration at 24 h [5, 15]?
The concentration at 24 h was 0 nM.

And the concentration at 0.5 h [5, 16]?
The concentration at 0.5 h was 0 nM.

What about the concentration at 1 h [5, 16] of the same compound?
Its concentration at 1 h is 0 nM.

And the concentration at 2 h [5, 16]?
Its concentration at 2 h is 0 nM.

What about the concentration at 4 h [5, 16] of the same compound?
The concentration at 4 h was 0 nM.

And the concentration at 8 h [5, 16]?
Its concentration at 8 h is 0 nM.

And the concentration at 24 h [5, 16]?
The concentration at 24 h was 0 nM.

And the “Fold difference (distal vs proximal)” value [6]?
The value was 8.5 fold.

And the “PWT, g Mean ± SEM” value [7]?
The value was 0.62 ± 0.05 g.

What about the “PWT, gm Mean ± SEM” value [8] of the same compound?
The value was 23.2 ± 2.6 gm.

— patent publication US20250345350A1, “TREATING PAIN ASSOCIATED WITH CENTRAL SENSITIZATION” (Medicon Pharmaceuticals, Inc., priority 2022, published 2025)
